Laboratory results taken from ChEMBL document CHEMBL1201862, “PubChem BioAssay data set” (2004).
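A five-concentration, 48-hour dose response in 96-well plates underlies each endpoint, interpolated linearly between surrounding concentrations. Here, GI50 denotes the concentration required for 50% inhibition of growth.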 Calls of active or inactive are those of the source. Cut-off read from the data, not from the text of the source: active = GI50 up to about 1.1 µM and inactive = higher.

Assays:
Assay in all cases: DTP human tumour cell line panel, 48 h
MDA-N = system: MDA-N
MOLT-4 = system: MOLT-4
SW-620 = system: SW-620
T47D = system: T47D
A498 = system: A498
SF-268 = system: SF-268
PC-3 = system: PC-3
HCC 2998 = system: HCC 2998
SNB-19 = system: SNB-19
COLO 205 = system: COLO 205
RXF 393 = system: RXF 393
786-0 = system: 786-0
NCI-H23 = system: NCI-H23
NCI-H226 = system: NCI-H226
MDA-MB-435 = system: MDA-MB-435
MDA-MB-231 = system: MDA-MB-231
HT-29 = system: HT-29
NCI-H460 = system: NCI-H460
DU-145 = system: DU-145
SN12C = system: SN12C
SK-MEL-2 = system: SK-MEL-2
SNB-75 = system: SNB-75
SK-OV-3 = system: SK-OV-3
NCI-H522 = system: NCI-H522
Hs-578T = system: Hs-578T
HCT-116 = system: HCT-116
HOP-92 = system: HOP-92
A549 = system: A549
U-251 = system: U-251
ACHN = system: ACHN
SK-MEL-5 = system: SK-MEL-5
NCI/ADR-RES = system: NCI/ADR-RES
Malme-3M = system: Malme-3M
UACC-62 = system: UACC-62
HOP-62 = system: HOP-62
M14 = system: M14
SF-295 = system: SF-295
SR = system: SR
CCRF-CEM = system: CCRF-CEM
OVCAR-5 = system: OVCAR-5
OVCAR-4 = system: OVCAR-4
BT-549 = system: BT-549
KM12 = system: KM12
IGROV-1 = system: IGROV-1
CAKI-1 = system: CAKI-1
TK-10 = system: TK-10
K562 = system: K562
OVCAR-3 = system: OVCAR-3
HCT-15 = system: HCT-15
SK-MEL-28 = system: SK-MEL-28
UO-31 = system: UO-31
UACC-257 = system: UACC-257
EKVX = system: EKVX
MCF7 = system: MCF7
HL-60 = system: HL-60
SF-539 = system: SF-539
RPMI-8226 = system: RPMI-8226
OVCAR-8 = system: OVCAR-8
LOX IMVI = system: LOX IMVI

Q: For CC(C)C(CC(=O)OCC(CO)OC(=O)CC(C(C)C)C(C)C)C(C)C (stereo unspecified), which GI50 (MDA-N) is on record?
A: 13.6 µM (inactive)

Q: And the GI50 (MOLT-4)?
A: 10.1 µM (inactive)

Q: And the GI50 (SW-620)?
A: 13.6 µM (inactive)

Q: What about the GI50 (T47D) of the same compound?
A: 16.6 µM (inactive)

Q: And the GI50 (A498)?
A: 15.3 µM (inactive)

Q: And the GI50 (SF-268)?
A: 14.3 µM (inactive)

Q: And the GI50 (PC-3)?
A: 14.4 µM (inactive)

Q: What about the GI50 (HCC 2998) of the same compound?
A: 15.8 µM (inactive)

Q: And the GI50 (SNB-19)?
A: 14.7 µM (inactive)

Q: What about the GI50 (COLO 205) of the same compound?
A: 6.73 µM (inactive)

Q: And the GI50 (RXF 393)?
A: 16.6 µM (inactive)

Q: And the GI50 (786-0)?
A: 12.4 µM (inactive)

Q: What about the GI50 (NCI-H23) of the same compound?
A: 16.6 µM (inactive)

Q: What about the GI50 (NCI-H226) of the same compound?
A: 16.1 µM (inactive)

Q: What about the GI50 (MDA-MB-435) of the same compound?
A: 13.7 µM (inactive)

Q: And the GI50 (MDA-MB-231)?
A: 15.7 µM (inactive)

Q: And the GI50 (HT-29)?
A: 17.4 µM (inactive)

Q: And the GI50 (NCI-H460)?
A: 11.8 µM (inactive)

Q: And the GI50 (DU-145)?
A: 15.4 µM (inactive)

Q: What about the GI50 (SN12C) of the same compound?
A: 12.9 µM (inactive)

Q: What about the GI50 (SK-MEL-2) of the same compound?
A: 18.2 µM (inactive)

Q: What about the GI50 (SNB-75) of the same compound?
A: 10.2 µM (inactive)

Q: What about the GI50 (SK-OV-3) of the same compound?
A: 16.7 µM (inactive)

Q: What about the GI50 (NCI-H522) of the same compound?
A: 12.6 µM (inactive)

Q: And the GI50 (Hs-578T)?
A: 4.85 µM (inactive)

Q: What about the GI50 (HCT-116) of the same compound?
A: 16.2 µM (inactive)

Q: And the GI50 (HOP-92)?
A: 2.75 µM (inactive)

Q: What about the GI50 (A549) of the same compound?
A: 11 µM (inactive)

Q: And the GI50 (U-251)?
A: 13.1 µM (inactive)

Q: And the GI50 (ACHN)?
A: 10.9 µM (inactive)

Q: What about the GI50 (SK-MEL-5) of the same compound?
A: 11.9 µM (inactive)

Q: What about the GI50 (NCI/ADR-RES) of the same compound?
A: 13.5 µM (inactive)

Q: What about the GI50 (Malme-3M) of the same compound?
A: 15.1 µM (inactive)

Q: And the GI50 (UACC-62)?
A: 15.8 µM (inactive)

Q: And the GI50 (HOP-62)?
A: 10.5 µM (inactive)

Q: And the GI50 (M14)?
A: 14.1 µM (inactive)

Q: And the GI50 (SF-295)?
A: 6.27 µM (inactive)

Q: What about the GI50 (SR) of the same compound?
A: 22.1 µM (inactive)

Q: And the GI50 (CCRF-CEM)?
A: 5.53 µM (inactive)

Q: And the GI50 (OVCAR-5)?
A: 13 µM (inactive)

Q: And the GI50 (OVCAR-4)?
A: 18 µM (inactive)

Q: And the GI50 (BT-549)?
A: 19.1 µM (inactive)

Q: What about the GI50 (KM12) of the same compound?
A: 15.7 µM (inactive)

Q: And the GI50 (IGROV-1)?
A: 19.1 µM (inactive)

Q: What about the GI50 (CAKI-1) of the same compound?
A: 12.3 µM (inactive)

Q: What about the GI50 (TK-10) of the same compound?
A: 13.3 µM (inactive)

Q: And the GI50 (K562)?
A: 6 µM (inactive)

Q: What about the GI50 (OVCAR-3) of the same compound?
A: 13.9 µM (inactive)

Q: What about the GI50 (HCT-15) of the same compound?
A: 16.9 µM

Q: And the GI50 (SK-MEL-28)?
A: 16.2 µM (inactive)

Q: And the GI50 (UO-31)?
A: 14.6 µM (inactive)

Q: What about the GI50 (UACC-257) of the same compound?
A: 17.1 µM (inactive)

Q: And the GI50 (EKVX)?
A: 14 µM (inactive)

Q: And the GI50 (MCF7)?
A: 17.5 µM (inactive)

Q: COc1ccc(-c2c3ccccc3c(-c3ccc(OCCBr)cc3)c3ccccc23)cc1 was tested. Which GI50 (MDA-N) did it give?
A: > 100 µM (inactive)

Q: What about the GI50 (MOLT-4) of the same compound?
A: > 100 µM (inactive)

Q: What about the GI50 (SW-620) of the same compound?
A: > 100 µM (inactive)

Q: And the GI50 (T47D)?
A: > 100 µM (inactive)

Q: What about the GI50 (A498) of the same compound?
A: > 100 µM (inactive)

Q: What about the GI50 (SF-268) of the same compound?
A: > 100 µM (inactive)

Q: And the GI50 (PC-3)?
A: > 100 µM (inactive)

Q: What about the GI50 (HCC 2998) of the same compound?
A: > 100 µM (inactive)

Q: What about the GI50 (SNB-19) of the same compound?
A: > 100 µM (inactive)

Q: And the GI50 (COLO 205)?
A: > 100 µM (inactive)

Q: What about the GI50 (RXF 393) of the same compound?
A: > 100 µM (inactive)

Q: What about the GI50 (786-0) of the same compound?
A: > 100 µM (inactive)

Q: And the GI50 (HL-60)?
A: > 100 µM (inactive)

Q: What about the GI50 (NCI-H23) of the same compound?
A: > 100 µM (inactive)

Q: And the GI50 (NCI-H226)?
A: > 100 µM (inactive)

Q: What about the GI50 (MDA-MB-435) of the same compound?
A: > 100 µM (inactive)

Q: And the GI50 (MDA-MB-231)?
A: > 100 µM (inactive)

Q: And the GI50 (HT-29)?
A: > 100 µM (inactive)

Q: And the GI50 (NCI-H460)?
A: > 100 µM (inactive)

Q: And the GI50 (DU-145)?
A: > 100 µM (inactive)

Q: And the GI50 (SF-539)?
A: > 100 µM (inactive)

Q: And the GI50 (SN12C)?
A: > 100 µM (inactive)

Q: And the GI50 (SK-MEL-2)?
A: > 100 µM (inactive)

Q: And the GI50 (SNB-75)?
A: 43.9 µM (inactive)

Q: What about the GI50 (RPMI-8226) of the same compound?
A: > 100 µM (inactive)

Q: What about the GI50 (SK-OV-3) of the same compound?
A: > 100 µM (inactive)

Q: What about the GI50 (NCI-H522) of the same compound?
A: > 100 µM (inactive)

Q: And the GI50 (Hs-578T)?
A: > 100 µM (inactive)

Q: What about the GI50 (HCT-116) of the same compound?
A: > 100 µM (inactive)

Q: What about the GI50 (A549) of the same compound?
A: > 100 µM (inactive)

Q: What about the GI50 (U-251) of the same compound?
A: > 100 µM (inactive)

Q: And the GI50 (ACHN)?
A: > 100 µM (inactive)

Q: What about the GI50 (SK-MEL-5) of the same compound?
A: > 100 µM (inactive)

Q: What about the GI50 (NCI/ADR-RES) of the same compound?
A: > 100 µM (inactive)

Q: And the GI50 (Malme-3M)?
A: > 100 µM (inactive)

Q: And the GI50 (UACC-62)?
A: > 100 µM (inactive)

Q: What about the GI50 (OVCAR-8) of the same compound?
A: > 100 µM (inactive)

Q: What about the GI50 (HOP-62) of the same compound?
A: > 100 µM (inactive)

Q: What about the GI50 (M14) of the same compound?
A: > 100 µM (inactive)

Q: What about the GI50 (SF-295) of the same compound?
A: > 100 µM (inactive)

Q: What about the GI50 (SR) of the same compound?
A: > 100 µM (inactive)

Q: And the GI50 (CCRF-CEM)?
A: > 100 µM (inactive)

Q: What about the GI50 (OVCAR-5) of the same compound?
A: > 100 µM (inactive)

Q: What about the GI50 (OVCAR-4) of the same compound?
A: > 100 µM (inactive)

Q: And the GI50 (BT-549)?
A: > 100 µM (inactive)

Q: What about the GI50 (KM12) of the same compound?
A: > 100 µM (inactive)

Q: And the GI50 (IGROV-1)?
A: > 100 µM (inactive)

Q: What about the GI50 (CAKI-1) of the same compound?
A: > 100 µM (inactive)

Q: What about the GI50 (TK-10) of the same compound?
A: > 100 µM (inactive)

Q: And the GI50 (OVCAR-3)?
A: > 100 µM (inactive)

Q: What about the GI50 (HCT-15) of the same compound?
A: > 100 µM

Q: And the GI50 (SK-MEL-28)?
A: > 100 µM (inactive)

Q: What about the GI50 (UO-31) of the same compound?
A: 0.102 µM (active)

Q: What about the GI50 (UACC-257) of the same compound?
A: > 100 µM (inactive)

Q: And the GI50 (EKVX)?
A: > 100 µM (inactive)

Q: What about the GI50 (LOX IMVI) of the same compound?
A: > 100 µM (inactive)

Q: And the GI50 (MCF7)?
A: > 100 µM (inactive)
